Changes are numbered by the printed parent chain.
Columns and labels:
hybrid L2/pSS = target: T1, hybrid L2/pSS (Oryza sativa; Solanum tuberosum, UniProt P23509+Q7G065); assay: AGPase activity, phosphate release (PAMb colorimetric), Hill fit; assay type: biochemical; conditions: allosteric activator; ATP and Glc1P, 10 mM MgCl2, pH 8.0, room temperature; enzyme reduced with 10 mM DTT; read-out: A0.5
T1 construct: hybrid heterotetramer of whole rice L2 and whole potato SS, E. coli EA345, purified
T1 sequence (P23509 73-521): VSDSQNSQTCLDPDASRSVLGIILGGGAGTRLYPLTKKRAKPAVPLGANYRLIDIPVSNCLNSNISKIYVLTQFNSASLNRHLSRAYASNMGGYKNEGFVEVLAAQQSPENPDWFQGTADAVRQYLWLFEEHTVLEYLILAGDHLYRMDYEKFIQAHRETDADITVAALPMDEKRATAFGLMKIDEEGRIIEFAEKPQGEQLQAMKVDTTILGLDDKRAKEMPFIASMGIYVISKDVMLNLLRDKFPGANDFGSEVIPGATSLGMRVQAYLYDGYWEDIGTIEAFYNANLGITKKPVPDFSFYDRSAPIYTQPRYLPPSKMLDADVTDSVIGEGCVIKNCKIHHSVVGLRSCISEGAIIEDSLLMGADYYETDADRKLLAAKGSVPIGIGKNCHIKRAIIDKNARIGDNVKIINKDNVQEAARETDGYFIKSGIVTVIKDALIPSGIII
T1 sequence (Q7G065 1-518): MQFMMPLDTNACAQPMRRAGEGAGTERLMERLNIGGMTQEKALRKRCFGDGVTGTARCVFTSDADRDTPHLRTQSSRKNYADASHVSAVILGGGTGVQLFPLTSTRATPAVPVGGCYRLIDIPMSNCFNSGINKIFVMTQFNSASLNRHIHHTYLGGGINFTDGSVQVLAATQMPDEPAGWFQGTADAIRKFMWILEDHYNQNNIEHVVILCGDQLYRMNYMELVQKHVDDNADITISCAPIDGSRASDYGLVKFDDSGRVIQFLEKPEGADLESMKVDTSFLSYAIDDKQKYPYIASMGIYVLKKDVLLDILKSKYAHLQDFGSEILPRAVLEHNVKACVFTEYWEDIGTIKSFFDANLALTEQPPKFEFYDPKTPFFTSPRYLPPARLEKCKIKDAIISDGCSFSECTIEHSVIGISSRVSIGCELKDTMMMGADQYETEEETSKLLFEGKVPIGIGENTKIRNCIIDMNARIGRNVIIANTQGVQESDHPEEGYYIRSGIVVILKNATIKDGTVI
From the text: AGPase activity, phosphate release (PAMb colorimetric), Hill fit on hybrid L2/pSS

[1] = target: T2, rice AGPase L2/S2b (wild type; parent of L2/S2b^QTC and PQ6) (Oryza sativa, UniProt B7EVB8+Q7G065); conditions: read-out: A0.5; allosteric activator; ADP-glucose synthesis with ATP and Glc1P, 10 mM MgCl2, pH 8.0, room temperature; enzyme reduced with 10 mM DTT
T2 construct: gene AGPL2
T2 sequence (Q7G065 1-518): T1 sequence (Q7G065 1-518)
T2 sequence (B7EVB8 1-479): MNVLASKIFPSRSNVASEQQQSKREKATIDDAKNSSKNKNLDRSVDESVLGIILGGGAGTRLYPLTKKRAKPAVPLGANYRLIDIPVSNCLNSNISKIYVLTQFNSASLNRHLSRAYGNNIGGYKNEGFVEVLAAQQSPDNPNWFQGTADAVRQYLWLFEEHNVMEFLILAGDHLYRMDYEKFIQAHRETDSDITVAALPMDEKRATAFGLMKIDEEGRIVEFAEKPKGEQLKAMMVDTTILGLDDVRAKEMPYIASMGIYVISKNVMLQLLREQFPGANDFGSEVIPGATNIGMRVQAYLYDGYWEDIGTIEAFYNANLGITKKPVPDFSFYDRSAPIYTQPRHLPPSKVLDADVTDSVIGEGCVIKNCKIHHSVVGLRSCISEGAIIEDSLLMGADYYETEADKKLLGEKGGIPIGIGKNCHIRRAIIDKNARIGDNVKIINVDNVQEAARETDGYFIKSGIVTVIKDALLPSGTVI
From the text: (§1) AGPase activity, phosphate release (PAMb colorimetric), Hill fit on rice AGPase L2/S2b (wild type; parent of L2/S2b^QTC and PQ6)

[2] = target: T3, rice AGPase L2/S2b (wild type; parent of L2/S2b^QTC and PQ6) (Oryza sativa, UniProt B7EVB8+Q7G065, B7EVB8:N38Q/B7EVB8:K39T/B7EVB8:N40C/B7EVB8:L379F); conditions: read-out: A0.5; allosteric activator; ATP and Glc1P, 10 mM MgCl2, pH 8.0, room temperature; enzyme reduced with 10 mM DTT
T3 construct: gene AGPL2
T3 sequence (Q7G065 1-518): T1 sequence (Q7G065 1-518)
T3 sequence (B7EVB8 1-479 N38Q/K39T/N40C/L379F): T2 sequence (B7EVB8 1-479) with N38Q, K39T, N40C, L379F
From the text: as §1

[3] = target: T4, rice AGPase L2/S2b (wild type; parent of L2/S2b^QTC and PQ6) (Oryza sativa, UniProt B7EVB8+Q7G065, B7EVB8:N38Q/B7EVB8:K39T/B7EVB8:N40C); conditions: read-out: A0.5; allosteric activator; ATP and Glc1P, 10 mM MgCl2, pH 8.0, room temperature; enzyme reduced with 10 mM DTT
T4 construct: gene AGPL2
T4 sequence (Q7G065 1-518): T1 sequence (Q7G065 1-518)
T4 sequence (B7EVB8 1-479 N38Q/K39T/N40C): T2 sequence (B7EVB8 1-479) with N38Q, K39T, N40C
From the text: as §1

Compound `O=C(O)[C@H](O)COP(=O)(O)O` [3-PGA] has an EC50 (hybrid L2/pSS) of 147 ± 3 µM, an EC50 [1] of 342 ± 30 µM and an EC50 [2] of 106 µM. For the same compound, the EC50 [3] was 95 ± 2 µM.

Reference: paper PMC6378277, “Mechanism Underlying Heat Stability of the Rice Endosperm Cytosolic ADP-Glucose Pyrophosphorylase” (Frontiers in Plant Science, 2019)
